The record followed here is article PMC6934184, “Selective DNA-PKcs inhibition extends the therapeutic index of localized radiotherapy and chemotherapy” (The Journal of Clinical Investigation, 2019).

A word on the inhibition: it is the drop in the measured response relative to a control, in per cent.

This assay concerns the target T1, BTK (Homo sapiens, UniProt Q06187).
T1 construct: purchased Thermo Fisher Scientific (Life Technologies) SelectScreen
Briefly: SelectScreen Z'LYTE. It is filed as biochemical. An outline of the steps:
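Percent values come from Thermo SelectScreen profiling of NU5455, combining activity and binding assays. CSF1R was run in Z'LYTE format at Km app ATP, and CAMK1 in Adapta format with ATP listed at 10.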

T1 sequence (Q06187 whole entry): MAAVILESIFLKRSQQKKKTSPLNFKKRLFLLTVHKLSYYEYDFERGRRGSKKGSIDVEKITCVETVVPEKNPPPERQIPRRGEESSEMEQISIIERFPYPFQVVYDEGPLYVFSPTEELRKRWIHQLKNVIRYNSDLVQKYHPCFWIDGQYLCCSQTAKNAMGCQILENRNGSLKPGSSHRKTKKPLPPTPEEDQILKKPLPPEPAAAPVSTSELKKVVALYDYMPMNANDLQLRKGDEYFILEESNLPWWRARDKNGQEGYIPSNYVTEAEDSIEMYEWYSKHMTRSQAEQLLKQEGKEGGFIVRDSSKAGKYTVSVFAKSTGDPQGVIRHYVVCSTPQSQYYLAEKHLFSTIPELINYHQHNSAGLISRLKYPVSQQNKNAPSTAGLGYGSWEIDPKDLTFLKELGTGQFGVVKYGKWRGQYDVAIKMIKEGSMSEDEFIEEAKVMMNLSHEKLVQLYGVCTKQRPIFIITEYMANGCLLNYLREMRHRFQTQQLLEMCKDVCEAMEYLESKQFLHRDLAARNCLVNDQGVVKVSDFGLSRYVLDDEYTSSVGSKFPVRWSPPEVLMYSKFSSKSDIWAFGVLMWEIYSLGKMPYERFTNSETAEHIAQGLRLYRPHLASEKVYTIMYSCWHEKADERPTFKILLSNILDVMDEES

`CN(C(=O)CN1CCOCC1)c1ccc2sc3c(-c4cccc5c(=O)cc(N6CC7CCC(C6)O7)oc45)cccc3c2c1` [NU5455]: the inhibition at 1 µM was -2%.
